Laboratory results taken from ChEMBL document CHEMBL3044763, “Inhibitory Activities of Rhodanine Derivatives on Plant Growth” (Biosci Biotechnol Biochem, 1996).

Tests used:
Format in all cases: functional
[1] = test system: Brassica rapa subsp. oleifera; experiment: Growth inhibition of Brassica rapa subsp. oleifera assessed as chlorophyll b level at 1 x 10^-4 M after 7 days; parameters: scale not given: the % may be the effect or the level left
[2] = test system: Brassica rapa subsp. oleifera; experiment: Growth inhibition of Brassica rapa subsp. oleifera assessed as total chlorophyll level at 5 x 10^-5 M after 7 days; parameters: scale not given: the % may be the effect or the level left
[3] = test system: Brassica rapa subsp. oleifera; experiment: Growth inhibition of Brassica rapa subsp. oleifera assessed as root growth at 5 x 10^-5 M after 7 days
[4] = test system: Brassica rapa subsp. oleifera; experiment: Growth inhibition of Brassica rapa subsp. oleifera assessed as chlorophyll a level at 1 x 10^-4 M after 7 days; parameters: scale not given: the % may be the effect or the level left
[5] = test system: Brassica rapa subsp. oleifera; experiment: Growth inhibition of Brassica rapa subsp. oleifera assessed as chlorophyll b level at 5 x 10^-5 M after 7 days; parameters: scale not given: the % may be the effect or the level left
[6] = test system: Brassica rapa subsp. oleifera; experiment: Growth inhibition of Brassica rapa subsp. oleifera assessed as chlorophyll b level at 3 x 10^-4 M after 7 days; parameters: scale not given: the % may be the effect or the level left
[7] = test system: Brassica rapa subsp. oleifera; experiment: Growth inhibition of Brassica rapa subsp. oleifera assessed as chlorophyll a level at 3 x 10^-5 M after 7 days; parameters: scale not given: the % may be the effect or the level left
[8] = test system: Brassica rapa subsp. oleifera; experiment: Growth inhibition of Brassica rapa subsp. oleifera assessed as root growth at 3 x 10^-4 M after 7 days
[9] = test system: Brassica rapa subsp. oleifera; experiment: Growth inhibition of Brassica rapa subsp. oleifera assessed as chlorophyll a level at 3 x 10^-4 M after 7 days; parameters: scale not given: the % may be the effect or the level left
[10] = test system: Brassica rapa subsp. oleifera; experiment: Growth inhibition of Brassica rapa subsp. oleifera assessed as chlorophyll b level at 3 x 10^-5 M after 7 days; parameters: scale not given: the % may be the effect or the level left
[11] = test system: Brassica rapa subsp. oleifera; experiment: Growth inhibition of Brassica rapa subsp. oleifera assessed as chlorophyll a level at 5 x 10^-5 M after 7 days; parameters: scale not given: the % may be the effect or the level left
[12] = test system: Brassica rapa subsp. oleifera; experiment: Growth inhibition of Brassica rapa subsp. oleifera assessed as total chlorophyll level at 1 x 10^-4 M after 7 days; parameters: scale not given: the % may be the effect or the level left
[13] = test system: Brassica rapa subsp. oleifera; experiment: Growth inhibition of Brassica rapa subsp. oleifera assessed as total chlorophyll level at 3 x 10^-4 M after 7 days; parameters: scale not given: the % may be the effect or the level left
[14] = test system: Brassica rapa subsp. oleifera; experiment: Growth inhibition of Brassica rapa subsp. oleifera assessed as total chlorophyll level at 3 x 10^-5 M after 7 days; parameters: scale not given: the % may be the effect or the level left
[15] = test system: Brassica rapa subsp. oleifera; experiment: Growth inhibition of Brassica rapa subsp. oleifera assessed as root growth at 1 x 10^-4 M after 7 days
[16] = test system: Brassica rapa subsp. oleifera; experiment: Growth inhibition of Brassica rapa subsp. oleifera assessed as root growth at 3 x 10^-5 M after 7 days

O=C([O-])COc1ccc(Cl)cc1Cl.[Na+]
Activity [1]: 6.1%
Activity [2]: 16.35%
Root length [3]: 3.1 mm
Activity [4]: 12.57%
Activity [5]: 4.84%
Activity [6]: 1.68%
Activity [7]: 17.82%
Activity [8]: 2.1 mm
Activity [9]: 3.16%
Activity [10]: 7.32%
Activity [11]: 11.51%
Activity [12]: 18.67%
Activity [13]: 4.82%
Activity [14]: 25.12%
Activity [15]: 2.6 mm
Root length [16]: 3.3 mm
